The values that follow come from patent US20020091086A1, “Peptides that block viral infectivity and methods of use thereof” (priority 1999, published 2002).

“And” between values parts separate entries of the source, which are not always exact repeats. Identical values can stand only once. Peptide text beside a SMILES is read from it.

Data set [1] is described as follows: 18 day intraperitoneal toxicity in mice. In kind it is in vivo. The settings on record: intraperitoneal 0.01, 0.1 and 1 g per kilo bodyweight and day, 18 days from age 6 days. Here is the method:
In this example, the results from several in vivo toxicology studies on small peptides administered in large doses to rodents are presented. In a first experiment, a large single dose of small peptide was delivered to mice and the toxic effects were analyzed. […] In a second experiment, several doses of varying amounts of a small peptide were delivered to mice for almost three weeks. Groups of mice (five mice in each group) were given intraperitoneal injections of GPG-NH2 (0.01, 0.1 and 1 g per kilo bodyweight and day, respectively) starting at an age of 6 days. Daily injections were continued for 18 days. […] In a similar experiment, a four week toxicology study of GPG-NH2 was performed by Scantox A/S in Denmark. GPG-NH2 was given orally to rats at doses up to 1 g per kilo bodyweight per day for twenty eight days.

The next data set addresses T1, recombinant p24 (Human immunodeficiency virus type 1 group M subtype B, UniProt P04591).
T1 construct: purchased AIDS program, NCIB (gift, not bought)
Put plainly: dialysis-based binding assay with 14C-GPG-NH2, p24. Also noted: species or system HIV-1. Here is the method:
A dialysis-based binding assay was conducted using a dialysis membrane with a pore size of less than 10 kD. (Slide-A-Lyzer, Pierce). Fifty microliters of a 10 μM stock of the recombinant proteins p24 and gp120 (gifts from the AIDS program, NCIB) and BSA (Sigma) were introduced into separate dialysis membranes and the proteins were dialyzed at 4° C. for 2 days against a 500 ml solution composed of 150 mM NaCl and 50 mM Tris-HCl, pH 7.4 buffer and 27.5 μM of ^14C-GPG-NH2 (Amersham Ltd. UK). Subsequently, ten or five microliter aliquots of the dialyzed p24, gp120, and BSA were removed and mixed with 3 ml of ReadySafe (Beckman) in a scintillation vial. The C^14 was then detected by scintillation counting.

The subject of the next data set is GPG-deleted mutant mp10. Put plainly: infectivity in MT-2 cells, p24 ELISA, GPG-deleted mutant mp10. In kind it is cell-based, HIV-1. The protocol:
Accordingly, the ability of GPG-NH2 to inhibit the infectivity of wild-type and V3-loop deletion mutants (GPG domain) in MT-2 cells was determined. In these experiments, approximately 200,000 MT-2 cells were infected with HIV-1Bru wild-type and GPG-deleted mutants mp8 and mp10 at 25 TCID50 to test the inhibitory effect of GPG-NH2 The MT-2 cells were resuspended in 1 ml of RPMT 1640 medium supplemented with 10% (v/v) heat-inactivated fetal bovine serum (FBS, GIBCO), penicillin (100μ/ml), streptomycin (100μ/ml) and Polybrene (Sigma 2 μg/ml) with or without the presence of GPG-NH2 at concentration 20 of μM and 100 μM. Thereafter, viruses were added at 25 TCID50 in a volume of 20-30 μl. Cells were incubated with virus at 37° C. for 16 hr then loosely pelleted by centrifugation at 170×g for 7 minutes. The cells were then washed three times in RPMI medium without peptides at room temperature by cell sedimentation at 170×g for 7 minutes as above. After the final wash, the cells were resuspended in RPMI culture medium in 24-well plate (Costar corporation) then kept at 37° C. in 5% CO2 with humidity. Culture supernatants were collected when medium was changed at day 4, 7, 11 and 14 post infection. To monitor the replication of virus, HIV-1 p24 antigen protein in the supernatants from day 7 and 14 was assayed by a ELISA kit (Abbott Laboratories) which has a linear dose-response range from 20 pg to 640 pg of p24 per ml and the p24 amount can be determined with aid of the regression line.

Another data set deals with HSV-1. In kind it is cell-based. The settings on record: concentrations up to 1 mM.
For another data set, the system named is HIV-1. The following applies: Experiment 6; Day 7 HIV-1; 100 μM; HUT78 cells. Here is the method:
In experiment 6 (Table 7 and FIG. 1), approximately 200,000 HUT78 cells were infected with HIV-1 at 25 TCID50 to test the inhibitory effect of GPG-NH2, RQG-NH2, KQG-NH2, ALG-NH2, GVG-NH2, VGG-NH2, ASG-NH2, SLG-NH2, and SPT-NH2. The HUT cells were resuspended in lml of RPMI 1640 medium supplemented with 10% (v/v) heat-inactivated fetal bovine serum (FBS, GIBCO), penicillin (100 u/ml), streptomycin (100 u/ml) and Polybrene (Sigma, 2 μg/ml) with or without the presence of the different small peptides (100 μM) mentioned above. Thereafter, the HIV-1 virus was added at 25 TCID50 in a volume of 20 μl. Cells were incubated with the virus at 37° C. for one hour and, subsequently, the cells were pelleted at 170×g for seven minutes. The cells were then washed three times in RPMI medium without peptides at room temperature by cell sedimentation at 170×g for seven minutes, as above. After the final wash, the cells were resuspended in RPMI culture medium containing the peptides in 24-well plate (Costar corporation) and were kept at 37° C. in 5% CO2 with humidity. Culture supernatants were collected when medium was changed at day 4, 7, and 11 post infection and viral p24 production was monitored by using an HIV-1 p24 ELISA kit (Abbott Laboratories, North Chicago, USA).

For the next data set, the system named is HIV-1 RNA. Put plainly: Northern blot of HIV-1 RNA in infected H-9 cells. Format: cell-based. Here is the method: To study proviral DNA and viral RNA synthesis, DNA and RNA from HIV-1 infected H-9 cells cultured in the presence of a small peptide were prepared at various time points (0-48 h).
By Northern blot analysis, three RNA bands (9.2, 4.3, 2.0 kb) were detected 24-48 h after infection. The 9.2 kb RNA acts as both the genomic RNA and as the mRNA for the gag and pol genes. The 4.3 kb singly-spliced RNA represents at least the env gene, and the multiply-spliced 2 kb RNA encodes for the regulatory genes.

In data set [2] the test system is normal human lymphomonocytic cells (PBMC). Put plainly: viability of cultured monocytes and lymphocytes. The following applies: as high as 2 mM; exposure as long as 4 days. In kind it is cell-based. The protocol: Next, the toxicity to normal human lymphomonocytic cells (PBMC) was examined. […] The effect of GPG-NH2 on in vitro proliferative response of human mononuclear cells was also tested.

Take `NCC(=O)N1CCC[C@H]1C(=O)NCC(N)=O` [GPG-NH2, glycyl-prolyl-glycine amide] (H-Gly-Pro-Gly-NH2): in data set [1], the “influence on the mice compared to controls” value is given as “no significant influence”. The “radioactive GPG-NH2 associated with p24” value on recombinant p24 (dialysis 2 days at 4° C. against 27.5 μM 14C-GPG-NH2, buffer 1.816) came to 13.712 μCi/ml. Further, the “times buffer, p24” value at recombinant p24 (dialysis against 27.5 μM 14C-GPG-NH2) is 7.5 times buffer and 7.551 times buffer. The p24 in the data set on GPG-deleted mutant mp10 (GPG 20 μM, Day 7) was determined as 1560 pg/mL; in the data set with GPG-deleted mutant mp10 (GPG 20 μM, Day 14) it was 51500 pg/mL; with GPG-deleted mutant mp10 (GPG 100 μM, Day 7), 173 pg/mL; with GPG-deleted mutant mp10 (GPG 100 μM, Day 14), 47700 pg/mL; in the data set with HIV-1 it was 560 pg/mL. The reduction (%) with GPG-deleted mutant mp10 (GPG 20 μM, Day 7) came to 50%; in the data set on GPG-deleted mutant mp10 (GPG 20 μM, Day 14) it was 89%; in the data set on GPG-deleted mutant mp10 (GPG 100 μM, Day 7) it was 94%; in the data set with GPG-deleted mutant mp10 (GPG 100 μM, Day 14), 90%; with HIV-1, 97%. In addition, the HSV-1 replication entry with HSV-1 was “failed to reduce HSV-1 replication”. Moreover, the “expression of HIV-1 RNAs (9.2, 4.3, 2.0 kb)” value in the data set with HIV-1 RNA (20 μM, up to 48 h post infection) is listed as “no inhibitory effect”. Further, in the data set on HIV-1 RNA (200 μM and 2,000 μM, 48 h after infection), the “HIV-1 RNA” value is “a reduction of HIV-1 RNA was noticed”. Besides, the “viability of cultured monocytes and lymphocytes” value in data set [2] was “did not appreciably affect the viability”.
